Results as given in patent publication US20100152129A1 (priority 2008, published 2010).
Where two headings read alike, the source gives them in different places.

How the values were obtained:
[1] = test system: Panc-1 cells; assay: Protein expression using high content cell imaging system, and efficacy score; type: cell-based; settings: for Efficacy score: cumulative over proteins of Table 7; on BCL2 protein expression: test concentration or dose not given here; on CCND1 protein expression: test concentration or dose not given here; on CDC25B protein expression: test concentration or dose not given here; on CDKN2A protein expression: test concentration or dose not given here; on COX15 protein expression: test concentration or dose not given here; on GADD45-α protein expression: test concentration or dose not given here; on GAPDH protein expression: test concentration or dose not given here; on ID1 protein expression: test concentration or dose not given here; on MMP-1 protein expression: test concentration or dose not given here; on P27 protein expression: test concentration or dose not given here; on PTN protein expression: test concentration or dose not given here
[2] = test system: Panc1 cells; assay: Drug induced cytotoxicity at various time points, comparison with known CDK inhibitors
[3] = test system: Panc1 cells; settings: human
[4] = 6 hours post treatment, control 1
[5] = 6 hours post treatment, control 3
[6] = 6 hours post treatment, control 6
[7] = 6 hours post treatment, control 7
[8] = 6 hours post treatment, control 8
[9] = 6 hours post treatment, control 74
[10] = 6 hours post treatment, control 80
[11] = 6 hours post treatment, control 147
[12] = 6 hours post treatment, control 501
[13] = 6 hours post treatment, control 627
[14] = 6 hours post treatment, control 635
[15] = 6 hours post treatment, control 819
[16] = 6 hours post treatment, control 829
[17] = 6 hours post treatment, control 830
[18] = 6 hours post treatment, control 1240
[19] = 16 hours post treatment, control 13
[20] = 16 hours post treatment, control 54
[21] = 16 hours post treatment, control 64
[22] = 16 hours post treatment, control 67
[23] = 16 hours post treatment, control 76
[24] = 16 hours post treatment, control 77
[25] = 16 hours post treatment, control 90
[26] = 16 hours post treatment, control 100
[27] = 16 hours post treatment, control 202
[28] = 16 hours post treatment, control 579
[29] = 16 hours post treatment, control 644
[30] = 16 hours post treatment, control 711
[31] = 16 hours post treatment, control 718
[32] = 16 hours post treatment, control 929
[33] = 16 hours post treatment, control 1109
[34] = 16 hours post treatment, control 2583
[35] = 36 hours post treatment, control 19
[36] = 36 hours post treatment, control 86
[37] = 36 hours post treatment, control 96
[38] = 36 hours post treatment, control 98
[39] = 36 hours post treatment, control 100
[40] = 36 hours post treatment, control 265
[41] = 36 hours post treatment, control 715
[42] = 36 hours post treatment, control 722
[43] = 36 hours post treatment, control 1093
[44] = 36 hours post treatment, control 1316
[45] = 36 hours post treatment, control 1410
[46] = 36 hours post treatment, control 1441
[47] = 36 hours post treatment, control 2840

Compound: CC[C@H](CO)Nc1nc(NCc2ccccc2)c2ncn(C(C)C)c2n1 [Roscovitine]
- PTN protein expression [1, 4]: 2 fluorescence units
- GADD45-α protein expression [1, 5]: 2 fluorescence units
- ID1 protein expression [1, 5]: 16 fluorescence units
- P27 protein expression [1, 6]: 6 fluorescence units
- CDC25B protein expression [1, 7]: 4 fluorescence units
- CDKN2A protein expression [1, 8]: 10 fluorescence units
- CCND1 protein expression [1, 9]: 82 fluorescence units
- GAPDH protein expression [1, 10]: 81 fluorescence units
- CASP3 protein expression [1, 11]: 217 fluorescence units
- MMP-1 protein expression [1, 12]: 417 fluorescence units
- COX15 protein expression [1, 13]: 936 fluorescence units
- COX2 protein expression [1, 14]: 542 fluorescence units
- BAX protein expression [1, 15]: 729 fluorescence units
- VEGF protein expression [1, 16]: 417 fluorescence units
- BCL2 protein expression [1, 17]: 569 fluorescence units
- pRB protein expression [1, 18]: 1578 fluorescence units
- Efficacy score ([1]; 6 hours): 1.9
- GADD45-α protein expression [1, 19]: 49 fluorescence units
- CDC25B protein expression [1, 20]: 38 fluorescence units
- CDKN2A protein expression [1, 21]: 47 fluorescence units
- P27 protein expression [1, 22]: 42 fluorescence units
- PTN protein expression [1, 23]: 37 fluorescence units
- ID1 protein expression [1, 24]: 55 fluorescence units
- CCND1 protein expression [1, 25]: 84 fluorescence units
- GAPDH protein expression [1, 26]: 99 fluorescence units
- CASP3 protein expression [1, 27]: 1272 fluorescence units
- VEGF protein expression [1, 28]: 475 fluorescence units
- BCL2 protein expression [1, 29]: 529 fluorescence units
- BAX protein expression [1, 30]: 747 fluorescence units
- COX15 protein expression [1, 31]: 954 fluorescence units
- MMP-1 protein expression [1, 32]: 475 fluorescence units
- COX2 protein expression [1, 33]: 990 fluorescence units
- pRB protein expression [1, 34]: 1632 fluorescence units
- Efficacy score ([1]; 16 hours): 11.5
- GADD45-α protein expression [1, 35]: 44 fluorescence units
- COX2 protein expression [1, 36]: 67 fluorescence units
- P27 protein expression [1, 37]: 63 fluorescence units
- CCND1 protein expression [1, 38]: 98 fluorescence units
- CDC25B protein expression [1, 38]: 68 fluorescence units
- GAPDH protein expression [1, 38]: 75 fluorescence units
- ID1 protein expression [1, 38]: 56 fluorescence units
- PTN protein expression [1, 39]: 98 fluorescence units
- CASP3 protein expression [1, 40]: 1335 fluorescence units
- BAX protein expression [1, 41]: 1785 fluorescence units
- COX15 protein expression [1, 42]: 1992 fluorescence units
- VEGF protein expression [1, 43]: 1024 fluorescence units
- MMP-1 protein expression [1, 44]: 1024 fluorescence units
- BCL2 protein expression [1, 45]: 1091 fluorescence units
- CDKN2A protein expression [1, 46]: 1322 fluorescence units
- pRB protein expression [1, 47]: 1889 fluorescence units
- Efficacy score ([1]; 36 hours): 8.1
- % Cytotoxicity in Panc1 cells ([2]; 6 hrs after drug treatment): 12.35%
- % Cytotoxicity in Panc1 cells ([2]; 16 hrs after drug treatment): 15.24%
- % Cytotoxicity in Panc1 cells ([2]; 36 hrs after drug treatment): 17.35%

Compound: CN1CC[C@H](c2c(O)cc(O)c3c(=O)cc(-c4ccccc4Cl)oc23)[C@H](O)C1 [Flavopiridol]
- PTN protein expression [1, 4]: 1 fluorescence units
- GADD45-α protein expression [1, 5]: 1 fluorescence units
- ID1 protein expression [1, 5]: 2 fluorescence units
- P27 protein expression [1, 6]: 9 fluorescence units
- CDC25B protein expression [1, 7]: 1 fluorescence units
- CDKN2A protein expression [1, 8]: 67 fluorescence units
- CCND1 protein expression [1, 9]: 78 fluorescence units
- GAPDH protein expression [1, 10]: 80 fluorescence units
- CASP3 protein expression [1, 11]: 111 fluorescence units
- MMP-1 protein expression [1, 12]: 501 fluorescence units
- COX15 protein expression [1, 13]: 689 fluorescence units
- COX2 protein expression [1, 14]: 351 fluorescence units
- BAX protein expression [1, 15]: 481 fluorescence units
- VEGF protein expression [1, 16]: 501 fluorescence units
- BCL2 protein expression [1, 17]: 410 fluorescence units
- pRB protein expression [1, 18]: 1523 fluorescence units
- Efficacy score ([1]; 6 hours): 1.6
- GADD45-α protein expression [1, 19]: 15 fluorescence units
- CDC25B protein expression [1, 20]: 10 fluorescence units
- CDKN2A protein expression [1, 21]: 14 fluorescence units
- P27 protein expression [1, 22]: 22 fluorescence units
- PTN protein expression [1, 23]: 17 fluorescence units
- ID1 protein expression [1, 24]: 19 fluorescence units
- CCND1 protein expression [1, 25]: 52 fluorescence units
- GAPDH protein expression [1, 26]: 100 fluorescence units
- CASP3 protein expression [1, 27]: 536 fluorescence units
- VEGF protein expression [1, 28]: 129 fluorescence units
- BCL2 protein expression [1, 29]: 401 fluorescence units
- BAX protein expression [1, 30]: 252 fluorescence units
- COX15 protein expression [1, 31]: 459 fluorescence units
- MMP-1 protein expression [1, 32]: 129 fluorescence units
- COX2 protein expression [1, 33]: 466 fluorescence units
- pRB protein expression [1, 34]: 1300 fluorescence units
- Efficacy score ([1]; 16 hours): 9.4
- GADD45-α protein expression [1, 35]: 5 fluorescence units
- COX2 protein expression [1, 36]: 2 fluorescence units
- P27 protein expression [1, 37]: 2 fluorescence units
- CCND1 protein expression [1, 38]: 27 fluorescence units
- CDC25B protein expression [1, 38]: 21 fluorescence units
- GAPDH protein expression [1, 38]: 2 fluorescence units
- ID1 protein expression [1, 38]: 3 fluorescence units
- PTN protein expression [1, 39]: 100 fluorescence units
- CASP3 protein expression [1, 40]: 599 fluorescence units
- BAX protein expression [1, 41]: 1049 fluorescence units
- COX15 protein expression [1, 42]: 1256 fluorescence units
- VEGF protein expression [1, 43]: 316 fluorescence units
- MMP-1 protein expression [1, 44]: 316 fluorescence units
- BCL2 protein expression [1, 45]: 367 fluorescence units
- CDKN2A protein expression [1, 46]: 798 fluorescence units
- pRB protein expression [1, 47]: 1557 fluorescence units
- Efficacy score ([1]; 36 hours): 9.3
- % Cytotoxicity in Panc1 cells ([3]; 16 h): 21.25%
- % Cytotoxicity in Panc1 cells ([3]; 36 h): 29.47%
